Reference: patent publication US8058295B2, “Cystic fibrosis transmembrane conductance regulator protein inhibitors and uses thereof” (The Regents of the University of California, priority 2002, dated 2011)
“Also recorded” adds a separate entry of the source.

Experiments:
[1] = tested on: Calcium-sensitive Cl^− channels; test: UTP-stimulated Ca^2+-dependent Cl^− secretion, short-circuit current in human bronchial epithelial cells; assay type: cell-based
Text: Two non-CFTR Cl^− channels were studied.

[2] = molecular target: T1, MDR-1 (Homo sapiens, UniProt P08183); test: MDR-1 activity, ^3H-vincristine accumulation in 9HTEo-/Dx cells; assay type: cell-based; conditions: 5 μM
T1 construct: endogenous in cells; host or cells: 9HTEo-/Dx cells

[3] = molecular target: T2, Na^+/H^+ exchanger (NHE3) (Homo sapiens, UniProt P48764); test: Na^+/H^+ exchanger block; conditions: 5 μM
T2 sequence (P48764 26-834): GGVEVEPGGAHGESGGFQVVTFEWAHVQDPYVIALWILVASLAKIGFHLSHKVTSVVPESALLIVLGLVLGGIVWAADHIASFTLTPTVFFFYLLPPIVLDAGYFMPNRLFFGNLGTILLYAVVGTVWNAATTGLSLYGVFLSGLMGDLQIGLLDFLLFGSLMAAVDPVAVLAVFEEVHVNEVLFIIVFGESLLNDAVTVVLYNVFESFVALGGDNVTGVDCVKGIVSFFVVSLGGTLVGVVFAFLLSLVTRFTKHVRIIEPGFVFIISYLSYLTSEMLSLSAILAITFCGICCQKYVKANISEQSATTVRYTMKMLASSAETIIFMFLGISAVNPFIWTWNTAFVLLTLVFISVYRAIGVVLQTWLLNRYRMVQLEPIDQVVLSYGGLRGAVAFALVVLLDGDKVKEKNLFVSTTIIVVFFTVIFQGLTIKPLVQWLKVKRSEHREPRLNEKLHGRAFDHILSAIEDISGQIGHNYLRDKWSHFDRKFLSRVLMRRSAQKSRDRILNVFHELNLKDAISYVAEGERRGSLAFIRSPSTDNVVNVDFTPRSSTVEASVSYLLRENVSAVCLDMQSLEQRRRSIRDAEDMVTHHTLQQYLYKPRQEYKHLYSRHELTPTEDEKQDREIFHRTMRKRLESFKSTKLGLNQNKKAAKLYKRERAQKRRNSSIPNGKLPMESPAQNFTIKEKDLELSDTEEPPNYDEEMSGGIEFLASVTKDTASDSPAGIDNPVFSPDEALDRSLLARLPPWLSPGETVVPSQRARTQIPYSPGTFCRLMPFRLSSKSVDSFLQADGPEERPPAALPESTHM

[4] = tested on: phosphatase activity; test: Phosphatase assay; assay type: cell-based; conditions: 5 μM
[5] = tested on: FRT cells; test: Cell toxicity by dihydrorhodamine method; assay type: cell-based, rat; conditions: dihydrorhodamine assay, after 24 hours
[6] = Animal toxicity in mice; assay type: in vivo
[7] = tested on: cholera toxin-induced intestinal fluid secretion; set-up: species or system mice; conditions: mouse, in vivo, ip
[8] = Tissue distribution and elimination in mice after intravenous bolus; assay type: in vivo
Description: A bolus of ^14C-CFTRinh-172 (2 μCi) was administered intravenously over 1 min in mice (male CD1 mice, 30-35 grams) by tail vein. Mice were sacrificed at 5, 30, 120 and 240 min. Organs were removed, weighed and homogenized in distilled water (10-50 vol %). Radioactivity was determined by scintillation counting of the homogenates (25-50 μL) and expressed as total ^14C-radioactivity per organ (or per gram tissue for skeletal muscle). At the same time blood, urine and bile (from gallbladder or duodenum) were collected and ^14C-radioactivity was measured and expressed per mL of fluid. Elimination studies were done by collections of urine and stool over the first 24 hr after ^14C-CFTRinh-172 administration. Tissue distribution studies were also done on rats prepared as for pharmacokinetic studies.

[9] = Analysis of inhibitor metabolism by thin layer chromatography and autoradiography; assay type: in vivo, mice; conditions: urine, serum, bile, liver homogenate; TLC autoradiography
Text: Film was exposed for autoradiography for 48 hr (left panel) and 12 hr (right panel).
Aliquots of bodily fluids (plasma, urine, bile) and liver homogenate were spotted onto Silica plates and resolved by thin layer chromatography using a ethyl acetate:hexane:methanol (1:1:0.1) solvent system which gave rf ˜0.5 for the original inhibitor.

[10] = Caco-2 permeability assay; assay type: in vitro ADME; conditions: human, pH 7.3, Caco-2 monolayers, read-out: permeability coefficient (Papp)
Description: Caco-2 cells were cultured on porous inserts to give monolayer resistances of […]. For transport studies culture medium was replaced with an equal volume of Hank's buffered salt solution (HBSS) containing 15 mM glucose and 25 mM HEPES (pH 7.3).

[11] = Pharmacokinetic and oral bioavailability studies in mice; assay type: in vivo
Description: For comparison other mice were given ^14C-CFTRinh-172 (2 μCi) intravenously by tail vein infusion. Blood was collected from the tail vein at specified times for measurement of plasma ^14C radioactivity. At 6 hours mice were killed by pentobarbital overdose and organs were removed for measurement of radioactivity in homogenates.

[12] = molecular target: CFTR (Homo sapiens, UniProt P13569)
[13] = molecular target: wildtype CFTR (Homo sapiens, UniProt P13569); test: Short-circuit current in primary culture of human bronchial epithelial cells; assay type: cell-based; set-up: cells that natively express wildtype CFTR; endogenous in cells; host or cells: primary human bronchial epithelial cells
[14] = intraperitoneal 1000 μg/kg daily for 7 days

CFTR, sequence (P13569 whole entry): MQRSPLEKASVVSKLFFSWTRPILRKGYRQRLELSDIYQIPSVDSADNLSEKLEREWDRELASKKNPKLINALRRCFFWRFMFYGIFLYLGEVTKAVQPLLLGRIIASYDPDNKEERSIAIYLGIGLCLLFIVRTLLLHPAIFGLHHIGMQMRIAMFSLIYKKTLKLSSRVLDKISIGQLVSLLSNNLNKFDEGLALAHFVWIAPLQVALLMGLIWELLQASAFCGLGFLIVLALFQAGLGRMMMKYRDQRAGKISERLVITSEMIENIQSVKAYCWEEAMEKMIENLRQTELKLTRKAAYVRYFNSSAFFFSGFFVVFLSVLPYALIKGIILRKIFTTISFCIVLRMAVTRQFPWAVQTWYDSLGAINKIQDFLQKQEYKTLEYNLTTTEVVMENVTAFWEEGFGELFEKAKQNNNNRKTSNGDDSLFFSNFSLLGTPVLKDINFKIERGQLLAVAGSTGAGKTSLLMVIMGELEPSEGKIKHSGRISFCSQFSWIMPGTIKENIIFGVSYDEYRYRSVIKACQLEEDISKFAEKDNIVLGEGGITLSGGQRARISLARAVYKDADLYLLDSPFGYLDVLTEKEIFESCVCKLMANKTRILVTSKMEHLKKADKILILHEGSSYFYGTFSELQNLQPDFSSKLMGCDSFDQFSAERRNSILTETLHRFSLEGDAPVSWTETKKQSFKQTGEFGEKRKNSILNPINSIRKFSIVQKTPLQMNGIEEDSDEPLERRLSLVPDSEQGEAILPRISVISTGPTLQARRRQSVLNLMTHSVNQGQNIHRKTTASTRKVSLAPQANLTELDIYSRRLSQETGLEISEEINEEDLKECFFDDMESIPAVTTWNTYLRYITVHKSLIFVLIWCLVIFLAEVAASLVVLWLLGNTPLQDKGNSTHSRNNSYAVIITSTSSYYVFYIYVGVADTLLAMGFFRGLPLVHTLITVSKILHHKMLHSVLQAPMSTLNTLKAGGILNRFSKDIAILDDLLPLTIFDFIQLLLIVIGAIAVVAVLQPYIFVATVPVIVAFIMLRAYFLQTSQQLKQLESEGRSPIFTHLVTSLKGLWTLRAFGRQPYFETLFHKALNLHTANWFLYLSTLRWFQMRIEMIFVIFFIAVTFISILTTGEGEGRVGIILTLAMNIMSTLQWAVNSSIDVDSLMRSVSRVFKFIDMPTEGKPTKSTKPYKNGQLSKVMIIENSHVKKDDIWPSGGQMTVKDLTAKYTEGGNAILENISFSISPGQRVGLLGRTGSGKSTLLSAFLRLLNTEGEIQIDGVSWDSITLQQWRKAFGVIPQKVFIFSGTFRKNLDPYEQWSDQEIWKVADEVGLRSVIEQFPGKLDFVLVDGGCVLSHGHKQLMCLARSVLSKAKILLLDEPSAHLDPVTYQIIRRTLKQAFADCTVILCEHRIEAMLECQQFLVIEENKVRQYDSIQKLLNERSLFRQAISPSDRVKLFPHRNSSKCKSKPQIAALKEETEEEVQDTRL
wildtype CFTR, sequence (P13569 whole entry): as above
T1 sequence (P08183 whole entry): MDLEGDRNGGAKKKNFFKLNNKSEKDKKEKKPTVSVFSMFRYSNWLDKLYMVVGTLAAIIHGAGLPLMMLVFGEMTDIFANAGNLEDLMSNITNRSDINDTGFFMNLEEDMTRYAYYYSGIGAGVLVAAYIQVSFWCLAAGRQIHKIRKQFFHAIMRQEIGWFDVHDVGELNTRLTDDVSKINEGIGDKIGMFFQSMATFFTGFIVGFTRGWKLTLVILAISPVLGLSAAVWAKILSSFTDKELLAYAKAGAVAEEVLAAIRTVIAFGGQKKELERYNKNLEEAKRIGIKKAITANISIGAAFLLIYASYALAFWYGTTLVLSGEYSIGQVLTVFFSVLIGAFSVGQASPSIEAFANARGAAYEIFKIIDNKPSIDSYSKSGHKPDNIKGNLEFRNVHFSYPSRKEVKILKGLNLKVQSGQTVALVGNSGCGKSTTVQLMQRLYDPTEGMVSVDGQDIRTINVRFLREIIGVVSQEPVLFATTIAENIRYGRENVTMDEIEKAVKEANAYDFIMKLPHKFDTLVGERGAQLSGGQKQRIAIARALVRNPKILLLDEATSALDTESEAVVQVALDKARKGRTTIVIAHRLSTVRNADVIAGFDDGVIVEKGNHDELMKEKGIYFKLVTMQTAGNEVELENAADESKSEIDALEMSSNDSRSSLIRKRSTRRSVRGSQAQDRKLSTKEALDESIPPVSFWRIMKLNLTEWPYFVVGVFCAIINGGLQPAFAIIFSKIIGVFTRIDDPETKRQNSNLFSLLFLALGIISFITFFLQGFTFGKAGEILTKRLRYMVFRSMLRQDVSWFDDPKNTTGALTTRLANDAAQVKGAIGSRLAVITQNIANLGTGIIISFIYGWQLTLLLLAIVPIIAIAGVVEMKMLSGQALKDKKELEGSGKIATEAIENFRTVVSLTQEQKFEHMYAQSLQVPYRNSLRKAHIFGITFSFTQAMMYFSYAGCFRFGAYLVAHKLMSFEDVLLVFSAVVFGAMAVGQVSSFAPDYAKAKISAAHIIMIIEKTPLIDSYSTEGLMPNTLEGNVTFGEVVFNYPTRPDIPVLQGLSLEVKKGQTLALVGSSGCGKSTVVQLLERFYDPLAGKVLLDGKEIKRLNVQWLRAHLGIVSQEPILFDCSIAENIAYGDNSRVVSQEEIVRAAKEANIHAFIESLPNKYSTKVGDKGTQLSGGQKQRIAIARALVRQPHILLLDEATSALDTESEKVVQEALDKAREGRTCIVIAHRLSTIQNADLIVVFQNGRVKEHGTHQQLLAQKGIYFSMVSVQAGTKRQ

## O=C(O)c1ccc(/C=C2\SC(=S)N(c3cccc(C(F)(F)F)c3)C2=O)cc1 [CFTRinh-172, 3-[(3-trifluoromethyl)phenyl]-5-[(4-carboxyphenyl)methylene]-2-thioxo-4-thiazolidinone]
[1]; 5 μM, UTP 100 μM
  inhibition of Ca^2+ activated secretion: did not inhibit
[1]; in presence of 5 μM inhibitor (SE, n=4)
  maximal UTP-dependent short-circuit current: 10.0±0.2 μA/cm^2
[2]
  vincristine accumulation: did not affect vincristine accumulation
[3]
  block of Na^+/H^+ exchanger (NHE3): did not block
[4]
  effect on phosphatase activity: did not affect
[5]
  concentration non-toxic to FRT cells: up to 100 μM
[6]; [14]
  food and water intake: not diminished
  overt toxicity: did not cause overt toxicity
  serum electrolyte concentrations, glucose, liver function indices, serum creatinine, amylase and hematocrit: not changed
[6]; single systemic dose 10 mg/kg
  overt toxicity: did not cause overt toxicity
[7]
  fluid accumulation in cholera toxin-treated loops: effectively prevented fluid accumulation; also recorded: significantly reduced fluid secretion to that in saline control loops
  inhibition of fluid accumulation in cholera toxin-injected loops: ~90%
  inhibition of luminal fluid accumulation: significant inhibition of luminal fluid accumulation; also recorded: much less inhibition
  t1/2 for persistence of inhibition: 9 to 10 h
[8]; mice
  ratio of ^14C radioactivity in urine-to-blood: 5-7
[8]; mice, first 2 hours after infusion
  average urine radioactivity: 4.2±1.2×10^5 cpm/mL
[8]; mice, i.v. bolus
  ^14C radioactivity in brain, heart, skeletal muscle or testes: Little radioactivity
[8]; mice, later times (30-240 min)
  organ distribution of ^14C radioactivity: accumulated in the intestine
[8]; mice, urine and stool over first 24 hr
  excreted radioactivity found in the urine: 93±3%
[8]; mice, within 5 min after i.v. infusion
  organ distribution of ^14C radioactivity: primarily in liver and kidney
[8]; mouse, in vivo
  concentration of ^14C radioactivity in bile vs. blood: ~9 fold
[8]; rodents
  accumulation in other vital organs including heart, lung, skeletal muscle and testes: little CFTRinh-172 accumulation
  blood-brain barrier penetration: did not significantly cross the blood-brain barrier
[9]
  chemical modification (metabolism): did not occur
[10]
  Papp A→B at 25 μM: 16 ×10⁻⁶ cm/s
[11]; 6 hr after oral and intravenous administration
  organ distribution: accumulation in the gastrointestinal tract as well as the liver and kidney
[11]; TPGS preparation, oral vs. intravenous tissue/serum content at 4-6 hr
  oral bioavailability: 15-20%
[11]; mice, intravenous
  time over which high initial serum concentrations decreased (tissue redistribution): ~30 min
[11]; mice, oral administration in TPGS
  time of peak serum radioactivity: 60 to 90 min
[11]; mouse, in vivo
  concentration of ^14C radioactivity in bile vs. serum: ~10 fold
[11]; over 24 hr
  radioactivity excreted in the stool: < 10 % of total excreted radioactivity
[12]
  IC50: 200 to 500 nM
  Kd: ~300 nM
[12]; dose-inhibition of short-circuit current
  Hill coefficient: ~1
[13]; added from the basolateral side
  inhibition of short-circuit current: inhibited short-circuit current
[13]; apical side, amiloride, after CPT-cAMP activation
  inhibition of short-circuit current: inhibited short-circuit current strongly
